In ChEMBL document CHEMBL5291721, “A preclinical secondary pharmacology resource illuminates target-adverse drug reaction associations of marketed drugs” (Nat Commun, 2023) one finds AC50 data, which are given here for 17 compounds.

For test [1], the target named is Sodium-dependent dopamine transporter (Homo sapiens, UniProt Q01959).
Test [2] addresses T1, Alpha-1A adrenergic receptor (Homo sapiens, UniProt P35348).
T1 sequence (P35348 whole entry): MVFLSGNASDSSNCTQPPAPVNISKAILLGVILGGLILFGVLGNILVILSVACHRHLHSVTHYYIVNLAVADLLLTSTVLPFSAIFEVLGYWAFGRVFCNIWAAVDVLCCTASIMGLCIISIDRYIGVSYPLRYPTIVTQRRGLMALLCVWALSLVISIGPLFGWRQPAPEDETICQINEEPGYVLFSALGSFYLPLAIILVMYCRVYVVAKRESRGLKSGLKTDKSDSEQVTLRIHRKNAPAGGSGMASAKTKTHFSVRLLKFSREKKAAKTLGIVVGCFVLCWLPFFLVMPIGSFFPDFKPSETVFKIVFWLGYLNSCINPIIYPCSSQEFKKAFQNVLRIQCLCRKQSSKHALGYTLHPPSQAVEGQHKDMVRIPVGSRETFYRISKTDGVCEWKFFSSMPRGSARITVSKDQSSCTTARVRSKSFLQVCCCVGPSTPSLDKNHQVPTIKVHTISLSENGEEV
Type of test: functional, cell-based.

In another test the target is Histamine H3 receptor (Homo sapiens, UniProt Q9Y5N1).
Chain of Histamine H3 receptor (Q9Y5N1 whole entry): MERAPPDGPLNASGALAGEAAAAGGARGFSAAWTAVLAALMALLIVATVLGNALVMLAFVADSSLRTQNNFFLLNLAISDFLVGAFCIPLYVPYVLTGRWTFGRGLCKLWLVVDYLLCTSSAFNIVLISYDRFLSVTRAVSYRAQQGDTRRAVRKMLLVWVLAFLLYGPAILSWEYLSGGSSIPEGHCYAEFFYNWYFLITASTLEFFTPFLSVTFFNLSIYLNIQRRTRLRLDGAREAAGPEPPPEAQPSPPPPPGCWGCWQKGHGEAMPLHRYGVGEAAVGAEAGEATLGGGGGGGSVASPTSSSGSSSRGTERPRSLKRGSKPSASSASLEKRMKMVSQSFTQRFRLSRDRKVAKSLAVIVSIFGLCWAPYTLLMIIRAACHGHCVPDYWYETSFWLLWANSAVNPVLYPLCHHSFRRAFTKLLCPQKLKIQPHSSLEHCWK
Test [3] has as its target T2, Muscarinic acetylcholine receptor M2 (Homo sapiens, UniProt P08172).
T2 sequence (P08172 whole entry): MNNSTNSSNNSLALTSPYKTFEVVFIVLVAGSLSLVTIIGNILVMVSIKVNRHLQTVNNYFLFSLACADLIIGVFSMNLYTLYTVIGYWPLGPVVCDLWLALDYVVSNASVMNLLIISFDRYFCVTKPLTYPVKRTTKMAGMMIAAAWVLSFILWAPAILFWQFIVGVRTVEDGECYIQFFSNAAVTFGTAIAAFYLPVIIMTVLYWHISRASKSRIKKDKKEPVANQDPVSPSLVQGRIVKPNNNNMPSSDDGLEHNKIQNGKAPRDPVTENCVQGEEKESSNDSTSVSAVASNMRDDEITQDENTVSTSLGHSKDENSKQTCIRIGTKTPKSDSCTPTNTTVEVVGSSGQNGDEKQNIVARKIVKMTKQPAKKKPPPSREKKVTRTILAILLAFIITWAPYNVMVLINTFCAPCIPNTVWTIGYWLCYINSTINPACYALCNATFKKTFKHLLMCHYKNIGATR
Type of test: functional, cell-based.

Test [4] has as its target cGMP-inhibited 3',5'-cyclic phosphodiesterase 3A (Homo sapiens, UniProt Q14432). Type of test: functional.
For test [5], the target named is T3, Alpha-2A adrenergic receptor (Homo sapiens, UniProt P08913).
T3 sequence (P08913 whole entry): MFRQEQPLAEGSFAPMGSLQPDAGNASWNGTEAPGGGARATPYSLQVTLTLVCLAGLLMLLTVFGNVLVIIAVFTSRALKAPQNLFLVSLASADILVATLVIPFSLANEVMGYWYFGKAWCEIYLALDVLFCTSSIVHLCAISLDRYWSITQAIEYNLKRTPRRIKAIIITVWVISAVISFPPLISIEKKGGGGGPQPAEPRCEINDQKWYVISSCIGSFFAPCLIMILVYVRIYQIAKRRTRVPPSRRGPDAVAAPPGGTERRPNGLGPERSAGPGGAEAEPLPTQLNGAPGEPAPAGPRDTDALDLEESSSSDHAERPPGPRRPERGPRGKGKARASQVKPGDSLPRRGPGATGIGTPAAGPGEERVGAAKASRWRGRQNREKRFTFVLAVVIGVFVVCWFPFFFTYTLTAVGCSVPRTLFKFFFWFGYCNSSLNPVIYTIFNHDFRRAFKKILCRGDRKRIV
Type of test: functional, cell-based.

Test [6] addresses Gamma-aminobutyric acid receptor subunit alpha-1 (Rattus norvegicus, UniProt P62813). Type of test: functional.
Test [7] deals with Glutamate receptor ionotropic, NMDA 1 (Rattus norvegicus, UniProt P35439).
The next test has as its target Histamine H2 receptor (Homo sapiens, UniProt P25021). Type of test: functional, cell-based.
Test [8] addresses Kappa-type opioid receptor (Homo sapiens, UniProt P41145).
Another test concerns the target T4, B2 bradykinin receptor (Homo sapiens, UniProt P30411).
T4 sequence (P30411 whole entry): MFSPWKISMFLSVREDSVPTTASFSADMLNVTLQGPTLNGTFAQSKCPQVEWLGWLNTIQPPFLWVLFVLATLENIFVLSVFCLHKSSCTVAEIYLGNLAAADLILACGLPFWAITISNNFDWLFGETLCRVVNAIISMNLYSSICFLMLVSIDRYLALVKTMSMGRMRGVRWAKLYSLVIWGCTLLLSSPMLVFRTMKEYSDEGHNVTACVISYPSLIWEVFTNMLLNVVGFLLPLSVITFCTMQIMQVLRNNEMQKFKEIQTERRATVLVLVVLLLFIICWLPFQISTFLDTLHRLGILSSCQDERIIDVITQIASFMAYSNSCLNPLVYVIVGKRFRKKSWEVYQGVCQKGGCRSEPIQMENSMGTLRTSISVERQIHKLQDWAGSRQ
Note: assay procedure not described here.

Chain of Sodium-dependent dopamine transporter (Q01959 whole entry): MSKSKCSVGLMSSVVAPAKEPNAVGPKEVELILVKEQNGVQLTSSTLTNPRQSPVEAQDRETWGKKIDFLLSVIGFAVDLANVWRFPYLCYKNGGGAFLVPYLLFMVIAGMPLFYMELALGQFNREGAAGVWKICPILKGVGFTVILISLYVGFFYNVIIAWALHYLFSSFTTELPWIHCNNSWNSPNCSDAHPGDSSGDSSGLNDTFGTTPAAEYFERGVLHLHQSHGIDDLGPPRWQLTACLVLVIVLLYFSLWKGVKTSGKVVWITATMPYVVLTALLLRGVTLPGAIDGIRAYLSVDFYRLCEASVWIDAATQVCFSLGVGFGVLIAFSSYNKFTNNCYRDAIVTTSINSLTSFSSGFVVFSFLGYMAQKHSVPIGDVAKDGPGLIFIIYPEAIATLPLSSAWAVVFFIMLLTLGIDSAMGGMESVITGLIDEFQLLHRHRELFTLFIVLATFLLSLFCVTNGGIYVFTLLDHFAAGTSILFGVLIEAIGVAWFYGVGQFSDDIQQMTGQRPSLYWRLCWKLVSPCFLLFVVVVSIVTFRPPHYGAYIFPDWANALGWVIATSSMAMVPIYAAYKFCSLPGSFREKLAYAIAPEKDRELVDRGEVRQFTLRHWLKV
Chain of Gamma-aminobutyric acid receptor subunit alpha-1 (P62813 whole entry): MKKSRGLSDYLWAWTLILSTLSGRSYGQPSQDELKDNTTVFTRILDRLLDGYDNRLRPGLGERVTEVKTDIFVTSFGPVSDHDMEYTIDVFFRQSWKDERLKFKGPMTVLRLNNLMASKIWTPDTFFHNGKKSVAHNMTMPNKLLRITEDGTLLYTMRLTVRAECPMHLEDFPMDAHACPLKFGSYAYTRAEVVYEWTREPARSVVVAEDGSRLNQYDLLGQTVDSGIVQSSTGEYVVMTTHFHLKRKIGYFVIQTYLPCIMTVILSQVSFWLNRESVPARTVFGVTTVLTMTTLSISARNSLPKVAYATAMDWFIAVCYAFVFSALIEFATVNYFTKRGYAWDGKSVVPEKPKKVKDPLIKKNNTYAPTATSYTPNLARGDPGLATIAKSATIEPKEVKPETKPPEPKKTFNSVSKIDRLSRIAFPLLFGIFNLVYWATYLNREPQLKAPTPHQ
Chain of cGMP-inhibited 3',5'-cyclic phosphodiesterase 3A (Q14432 whole entry): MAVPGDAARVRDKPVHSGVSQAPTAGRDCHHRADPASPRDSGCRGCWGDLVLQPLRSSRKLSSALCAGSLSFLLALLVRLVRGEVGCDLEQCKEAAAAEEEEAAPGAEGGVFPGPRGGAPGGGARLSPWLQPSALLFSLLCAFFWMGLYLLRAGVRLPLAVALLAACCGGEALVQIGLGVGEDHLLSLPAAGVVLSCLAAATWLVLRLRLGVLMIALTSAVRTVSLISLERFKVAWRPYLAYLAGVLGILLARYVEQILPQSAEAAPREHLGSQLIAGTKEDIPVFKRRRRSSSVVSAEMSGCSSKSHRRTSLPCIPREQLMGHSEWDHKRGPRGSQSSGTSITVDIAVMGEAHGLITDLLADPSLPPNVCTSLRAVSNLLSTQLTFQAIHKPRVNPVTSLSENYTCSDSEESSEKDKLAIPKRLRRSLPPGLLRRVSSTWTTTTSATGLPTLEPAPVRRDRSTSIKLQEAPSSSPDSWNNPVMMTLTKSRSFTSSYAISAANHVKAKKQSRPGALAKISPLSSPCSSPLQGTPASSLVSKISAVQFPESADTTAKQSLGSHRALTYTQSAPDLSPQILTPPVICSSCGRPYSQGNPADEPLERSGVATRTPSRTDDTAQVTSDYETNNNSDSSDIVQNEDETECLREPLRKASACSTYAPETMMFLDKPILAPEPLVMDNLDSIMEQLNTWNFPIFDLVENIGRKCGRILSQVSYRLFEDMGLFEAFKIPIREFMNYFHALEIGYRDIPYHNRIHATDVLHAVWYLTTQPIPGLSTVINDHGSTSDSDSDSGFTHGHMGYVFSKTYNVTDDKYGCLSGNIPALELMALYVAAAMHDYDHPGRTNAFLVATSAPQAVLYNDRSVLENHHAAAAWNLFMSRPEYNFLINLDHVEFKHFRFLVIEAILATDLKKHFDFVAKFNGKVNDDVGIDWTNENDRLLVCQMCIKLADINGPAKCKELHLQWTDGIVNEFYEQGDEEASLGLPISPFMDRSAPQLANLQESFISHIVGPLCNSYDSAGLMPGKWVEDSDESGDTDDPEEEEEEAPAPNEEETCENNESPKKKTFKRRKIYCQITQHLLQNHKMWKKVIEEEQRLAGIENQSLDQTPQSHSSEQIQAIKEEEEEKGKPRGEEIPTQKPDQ
Chain of Histamine H2 receptor (P25021 whole entry): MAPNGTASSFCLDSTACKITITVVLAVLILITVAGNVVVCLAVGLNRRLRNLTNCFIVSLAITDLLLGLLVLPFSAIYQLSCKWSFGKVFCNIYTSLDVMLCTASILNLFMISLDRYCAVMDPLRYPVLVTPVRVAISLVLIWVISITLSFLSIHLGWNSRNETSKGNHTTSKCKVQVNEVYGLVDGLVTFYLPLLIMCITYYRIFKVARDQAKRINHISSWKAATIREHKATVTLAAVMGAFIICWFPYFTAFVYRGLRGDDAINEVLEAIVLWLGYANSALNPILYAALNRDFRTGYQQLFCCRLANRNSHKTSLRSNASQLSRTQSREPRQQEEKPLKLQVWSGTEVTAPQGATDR
Chain of Kappa-type opioid receptor (P41145 whole entry): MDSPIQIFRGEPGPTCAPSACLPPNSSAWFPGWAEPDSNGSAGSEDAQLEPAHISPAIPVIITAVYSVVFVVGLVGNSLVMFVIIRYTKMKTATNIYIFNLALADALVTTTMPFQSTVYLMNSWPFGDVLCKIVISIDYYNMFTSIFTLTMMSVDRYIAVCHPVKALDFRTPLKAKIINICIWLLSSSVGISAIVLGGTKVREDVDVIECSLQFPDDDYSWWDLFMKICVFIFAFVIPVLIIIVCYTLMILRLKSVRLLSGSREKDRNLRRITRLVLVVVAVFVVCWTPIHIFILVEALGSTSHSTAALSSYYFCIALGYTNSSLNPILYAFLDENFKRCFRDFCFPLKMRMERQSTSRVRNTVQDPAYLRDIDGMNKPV

For `CC(=N)N1CC[C@H](SC2=C(C(=O)O)N3C(=O)[C@H]([C@@H](C)O)[C@H]3C2)C1`, the AC50 (in general, the concentration at which the activity in the assay is half-maximal) in [1] is 270 µM; in test [2], greater than 300 µM; at Histamine H3 receptor, greater than 300 µM; in test [3], greater than 300 µM; in test [4] it was greater than 300 µM; in [5], greater than 300 µM.

Turning to `O=C1CN2Cc3c(ccc(Cl)c3Cl)N=C2N1` [ANAGRELIDE], the AC50 in test [6] is greater than 10 µM; in test [1], greater than 30 µM; in [7], greater than 10 µM; on Histamine H2 receptor, greater than 10 µM; in test [2], greater than 30 µM; in test [8], greater than 10 µM. The AC50 is greater than 10 µM on Histamine H3 receptor, greater than 10 µM in [3], greater than 10 µM in [5] and greater than 30 µM on B2 bradykinin receptor.

In the case of `CNCC[C@@H](Oc1ccccc1C)c1ccccc1` [ATOMOXETINE], the AC50 was greater than 30 µM at Histamine H2 receptor; greater than 30 µM in test [2]; 1.8 µM in test [8]; 30 µM at Histamine H3 receptor; greater than 30 µM in [4]; greater than 30 µM on B2 bradykinin receptor.

Consider `C=C(C)[C@@H]1CCC(C)=C[C@H]1c1c(O)cc(CCCCC)cc1O` [CANNABIDIOL], for which the AC50 in test [6] was greater than 30 µM; in [1] it was 28 µM; in [2], greater than 30 µM; on Histamine H3 receptor it was 26 µM; in test [3], 8 µM; in test [4] it was 25 µM. Moreover, the AC50 in [5] was greater than 10 µM.

As for `[H]/N=C(\N/C(=N/[H])NCCCCCCNC(=N)NC(=N)Nc1ccc(Cl)cc1)Nc1ccc(Cl)cc1` [CHLORHEXIDINE], the concentration at half-maximal activity (AC50) is greater than 10 µM in test [6]; 3 µM in test [1]; greater than 10 µM in [7]; greater than 10 µM at Histamine H2 receptor; greater than 30 µM in test [2]; 3.99 µM in test [8]. Also, the AC50 is 11 µM in [4] and greater than 30 µM in test [5].

In the case of `Clc1cccc(Cl)c1N=C1NCCN1` [CLONIDINE], the AC50 is greater than 10 µM in [6]; greater than 10 µM in [1]; greater than 10 µM in test [7]; 0.39 µM on Histamine H2 receptor; greater than 10 µM on Histamine H3 receptor; greater than 10 µM in test [3]. Moreover, the AC50 (in test [4]; at B2 bradykinin receptor) was greater than 30 µM each time.

With `CN1C[C@H](C(=O)N[C@]2(C)O[C@@]3(O)[C@@H]4CCCN4C(=O)[C@H](Cc4ccccc4)N3C2=O)C[C@@H]2c3cccc4[nH]cc(c34)C[C@H]21` [DIHYDROERGOTAMINE], the AC50 in [6] is greater than 10 µM; in [1] it was greater than 30 µM; in test [7] it was greater than 10 µM; at Histamine H2 receptor, 0.62 µM; in [2] it was 1.7 µM; in test [8], greater than 10 µM. Further, the AC50 at Histamine H3 receptor is greater than 10 µM; in test [3], greater than 10 µM; in test [4], greater than 30 µM; on B2 bradykinin receptor, greater than 30 µM.

For the compound `CNCC[C@H](Oc1cccc2ccccc12)c1cccs1` [DULOXETINE], the AC50 in [6] was greater than 10 µM; in [7], greater than 10 µM; at Histamine H2 receptor it was greater than 10 µM; in test [3] it was greater than 10 µM; in test [4], greater than 30 µM; in [5] it was greater than 10 µM. Further, at B2 bradykinin receptor, the AC50 is greater than 30 µM.

In the case of `CC1(C)O[C@@H]2C[C@H]3[C@@H]4C[C@H](F)C5=CC(=O)C=C[C@]5(C)[C@H]4[C@@H](O)C[C@]3(C)[C@]2(C(=O)CO)O1` [FLUNISOLIDE], the AC50 (in test [6]; in [1]; in [2]; at Histamine H3 receptor; in test [3]; in test [4]) was greater than 30 µM in each case. Also, in test [5], the AC50 was greater than 30 µM.

For the compound `C[C@H]1Oc2cc(cnc2N)-c2c(nn(C)c2C#N)CN(C)C(=O)c2ccc(F)cc21` [LORLATINIB], the AC50 (in test [6]; in test [1]; in [2]; at Histamine H3 receptor; in [3]; in test [4]) was greater than 30 µM throughout. In test [5], this compound displayed an AC50 greater than 30 µM.

Consider `CNCCC=C1c2ccccc2CCc2ccccc21` [NORTRIPTYLINE], for which the AC50 was greater than 30 µM in [6]; 3.2 µM in [1]; greater than 30 µM at Histamine H2 receptor; greater than 30 µM in test [2]; greater than 30 µM at Histamine H3 receptor; greater than 30 µM in [3]. Also, the AC50 on B2 bradykinin receptor was greater than 30 µM.

For `COc1ccc(Cc2nccc3cc(OC)c(OC)cc23)cc1OC` [PAPAVERINE], the AC50 (in test [6]; in [1]; in test [7]; on Histamine H2 receptor; in test [2]; in [8]) was greater than 30 µM each time. The AC50 (at Histamine H3 receptor; in test [3]; in [5]; at B2 bradykinin receptor) was greater than 30 µM in each case.

As to `CC(C)C[C@H](CN)CC(=O)O` [PREGABALIN], the AC50 in test [6] was greater than 30 µM; in test [1], greater than 30 µM; in test [7], greater than 30 µM; on Histamine H2 receptor it was greater than 10 µM; in [8] it was greater than 30 µM; at Histamine H3 receptor, greater than 30 µM. Also, the AC50 (in test [3]; in test [4]; in test [5]; on B2 bradykinin receptor) was greater than 30 µM each time.

Turning to `CCOc1cc(CC(=O)N[C@@H](CC(C)C)c2ccccc2N2CCCCC2)ccc1C(=O)O` [REPAGLINIDE], the AC50 in [6] was greater than 30 µM; in test [1], greater than 30 µM; in test [2], 27 µM; on Histamine H3 receptor it was greater than 30 µM; in test [3] it was greater than 30 µM; in test [4], greater than 30 µM. For the same compound, the AC50 in test [5] was greater than 30 µM.

As to `CCCN(CCC)CCc1cccc2c1CC(=O)N2` [ROPINIROLE], the AC50 in test [6] is greater than 30 µM; in [1], greater than 30 µM; in test [7], greater than 10 µM; at Histamine H2 receptor, greater than 10 µM; in test [2] it was 6.93 µM; at Histamine H3 receptor, 9.25 µM. The AC50 (in test [3]; in [4]; in test [5]; at B2 bradykinin receptor) was greater than 30 µM each time.

On to `CCCN(CCc1cccs1)[C@H]1CCc2c(O)cccc2C1` [ROTIGOTINE], for which the concentration at half-maximal activity (AC50) in test [6] is greater than 30 µM; in [1] it was 1.3 µM; at Histamine H3 receptor it was greater than 30 µM; in test [3], greater than 10 µM; in test [4], greater than 30 µM; in [5] it was 3.7 µM.

`CC[C@H]1OC(=O)[C@H](C)[C@@H](O[C@H]2C[C@@](C)(OC)[C@@H](O)[C@H](C)O2)[C@H](C)[C@@H](O[C@@H]2O[C@H](C)C[C@H](N(C)C)[C@H]2O)[C@](C)(O)C[C@@H](C)/C(=N\OCOCCOC)[C@H](C)[C@@H](O)[C@]1(C)O` [ROXITHROMYCIN]: the AC50 (in test [6]; in [1]; in test [2]; at Histamine H3 receptor; in test [3]; in test [4]) was greater than 30 µM each time. This compound registered an AC50 in [5] greater than 30 µM.
